From PubChem BioAssay AID1918953 (Molecular Pharmacology Branch, DTP, NCI, 2023)

Tested on: MDA-MB-231 complex spheroid viability
Experiment: Anticancer human tumor MDA-MB-231/ATCC cell line growth inhibition;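 note: drug exposure lasted 7 days starting on day 3 of spheroid growth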
Details: for IC50: curve of first compound; for viability, T/C: stronger effect = lower value
Procedure, shortened: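 Drug combinations with the LSD1 inhibitor iadademstat tested on tumor cells co-cultured as spheroids with endothelial cells and mesenchymal stem cells. Concentrations descended in half-log increments from clinical Cmax or 10 microM.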

[1] = second compound 0.1 µM, first compound 0.00949 µM
[2] = second compound 0.1 µM, first compound 0.03 µM
[3] = second compound 0.1 µM, first compound 0.0949 µM
[4] = second compound 0.1 µM, first compound 0.3 µM
[5] = second compound 0.1 µM, first compound 0.949 µM
[6] = second compound 0.1 µM, first compound 3 µM
[7] = second compound 0.316 µM, first compound 0.00949 µM
[8] = second compound 0.316 µM, first compound 0.03 µM
[9] = second compound 0.316 µM, first compound 0.0949 µM
[10] = second compound 0.316 µM, first compound 0.3 µM
[11] = second compound 0.316 µM, first compound 0.949 µM
[12] = second compound 0.316 µM, first compound 3 µM
[13] = second compound 1 µM, first compound 0.00949 µM
[14] = second compound 1 µM, first compound 0.03 µM
[15] = second compound 1 µM, first compound 0.0949 µM
[16] = second compound 1 µM, first compound 0.3 µM
[17] = second compound 1 µM, first compound 0.949 µM
[18] = second compound 1 µM, first compound 3 µM
[19] = second compound 3.16 µM, first compound 0.00949 µM
[20] = second compound 3.16 µM, first compound 0.03 µM
[21] = second compound 3.16 µM, first compound 0.0949 µM
[22] = second compound 3.16 µM, first compound 0.3 µM
[23] = second compound 3.16 µM, first compound 0.949 µM
[24] = second compound 3.16 µM, first compound 3 µM
[25] = second compound 10 µM, first compound 0.00949 µM
[26] = second compound 10 µM, first compound 0.03 µM
[27] = second compound 10 µM, first compound 0.0949 µM
[28] = second compound 10 µM, first compound 0.3 µM
[29] = second compound 10 µM, first compound 0.949 µM
[30] = second compound 10 µM, first compound 3 µM
[31] = second compound 0.1 µM, first compound 0.0316 µM
[32] = second compound 0.1 µM, first compound 0.1 µM
[33] = second compound 0.1 µM, first compound 0.316 µM
[34] = second compound 0.1 µM, first compound 1 µM
[35] = second compound 0.1 µM, first compound 3.16 µM
[36] = second compound 0.1 µM, first compound 10 µM
[37] = second compound 0.316 µM, first compound 0.0316 µM
[38] = second compound 0.316 µM, first compound 0.1 µM
[39] = second compound 0.316 µM, first compound 0.316 µM
[40] = second compound 0.316 µM, first compound 1 µM
[41] = second compound 0.316 µM, first compound 3.16 µM
[42] = second compound 0.316 µM, first compound 10 µM
[43] = second compound 1 µM, first compound 0.0316 µM
[44] = second compound 1 µM, first compound 0.1 µM
[45] = second compound 1 µM, first compound 0.316 µM
[46] = second compound 1 µM, first compound 1 µM
[47] = second compound 1 µM, first compound 3.16 µM
[48] = second compound 1 µM, first compound 10 µM
[49] = second compound 3.16 µM, first compound 0.0316 µM
[50] = second compound 3.16 µM, first compound 0.1 µM
[51] = second compound 3.16 µM, first compound 0.316 µM
[52] = second compound 3.16 µM, first compound 1 µM
[53] = second compound 3.16 µM, first compound 3.16 µM
[54] = second compound 3.16 µM, first compound 10 µM
[55] = second compound 10 µM, first compound 0.0316 µM
[56] = second compound 10 µM, first compound 0.1 µM
[57] = second compound 10 µM, first compound 0.316 µM
[58] = second compound 10 µM, first compound 1 µM
[59] = second compound 10 µM, first compound 3.16 µM
[60] = second compound 10 µM, first compound 10 µM

## COc1cc(C2c3cc4c(cc3C(OC3OC5COC(C)OC5C(O)C3O)C3COC(=O)C23)OCO4)cc(OC)c1O (stereo not given) + NC1CCC(NC2CC2c2ccccc2)CC1
Second compound 0.1 µM
  IC50: 153 nM
Second compound 0.316 µM
  IC50: 146 nM
Second compound 1 µM
  IC50: 130 nM
Second compound 3.16 µM
  IC50: 85.3 nM
Second compound 10 µM
  IC50: 47.5 nM
[1]
  viability, T/C: 93.9%
[2]
  viability, T/C: 79.8%
[3]
  viability, T/C: 56.2%
[4]
  viability, T/C: 41.6%
[5]
  viability, T/C: 15.6%
[6]
  viability, T/C: 8.25%
[7]
  viability, T/C: 98.8%
[8]
  viability, T/C: 79.2%
[9]
  viability, T/C: 56.1%
[10]
  viability, T/C: 40.7%
[11]
  viability, T/C: 16.8%
[12]
  viability, T/C: 9.41%
[13]
  viability, T/C: 91.1%
[14]
  viability, T/C: 73.1%
[15]
  viability, T/C: 56%
[16]
  viability, T/C: 37.6%
[17]
  viability, T/C: 18.3%
[18]
  viability, T/C: 10.5%
[19]
  viability, T/C: 79.6%
[20]
  viability, T/C: 60.5%
[21]
  viability, T/C: 50.1%
[22]
  viability, T/C: 38.2%
[23]
  viability, T/C: 17.8%
[24]
  viability, T/C: 13.3%
[25]
  viability, T/C: 59.5%
[26]
  viability, T/C: 52.3%
[27]
  viability, T/C: 44.4%
[28]
  viability, T/C: 33%
[29]
  viability, T/C: 17.7%
[30]
  viability, T/C: 14.4%

## O=C(C=Cc1cccc(S(=O)(=O)Nc2ccccc2)c1)NO + NC1CC1c1ccc(-c2cccc(O)c2)cc1
Second compound 0.1 µM
  IC50: 20.3 nM
Second compound 0.316 µM
  IC50: 13.2 nM
Second compound 1 µM
  IC50: 11.4 nM
Second compound 3.16 µM
  IC50: < 9.49 nM
Second compound 10 µM
  IC50: < 9.49 nM
[1]
  viability, T/C: 61.6%
[2]
  viability, T/C: 44%
[3]
  viability, T/C: 31.3%
[4]
  viability, T/C: 19.1%
[5]
  viability, T/C: 1.09%
[6]
  viability, T/C: 74.2%
[7]
  viability, T/C: 55.9%
[8]
  viability, T/C: 35.5%
[9]
  viability, T/C: 24.9%
[10]
  viability, T/C: 17.7%
[11]
  viability, T/C: 0.33%
[12]
  viability, T/C: 56.4%
[13]
  viability, T/C: 52.5%
[14]
  viability, T/C: 37.2%
[15]
  viability, T/C: 20.9%
[16]
  viability, T/C: 19.7%
[17]
  viability, T/C: 0.58%
[18]
  viability, T/C: 56.9%
[19]
  viability, T/C: 47.9%
[20]
  viability, T/C: 31.1%
[21]
  viability, T/C: 18.4%
[22]
  viability, T/C: 15.8%
[23]
  viability, T/C: 0.63%
[24]
  viability, T/C: 58.4%
[25]
  viability, T/C: 31.4%
[26]
  viability, T/C: 18.4%
[27]
  viability, T/C: 12.8%
[28]
  viability, T/C: 5.16%
[29]
  viability, T/C: 0.34%
[30]
  viability, T/C: 37.3%

## O=C(c1cc(Cc2n[nH]c(=O)c3ccccc23)ccc1F)N1CCN(C(=O)C2CC2)CC1 + NC1CC1c1ccc(-c2cccc(O)c2)cc1
Second compound 0.1 µM
  IC50: 1730 nM
Second compound 0.316 µM
  IC50: 522 nM
Second compound 1 µM
  IC50: 378 nM
Second compound 3.16 µM
  IC50: 349 nM
Second compound 10 µM
  IC50: < 31.6 nM
[31]
  viability, T/C: 71.6%
[32]
  viability, T/C: 64.2%
[33]
  viability, T/C: 67%
[34]
  viability, T/C: 56.1%
[35]
  viability, T/C: 42.7%
[36]
  viability, T/C: 27.1%
[37]
  viability, T/C: 65.5%
[38]
  viability, T/C: 60.6%
[39]
  viability, T/C: 54.8%
[40]
  viability, T/C: 44.5%
[41]
  viability, T/C: 32.3%
[42]
  viability, T/C: 24.8%
[43]
  viability, T/C: 59.6%
[44]
  viability, T/C: 56.9%
[45]
  viability, T/C: 50.7%
[46]
  viability, T/C: 44.3%
[47]
  viability, T/C: 32%
[48]
  viability, T/C: 21.1%
[49]
  viability, T/C: 65.3%
[50]
  viability, T/C: 54.1%
[51]
  viability, T/C: 50.6%
[52]
  viability, T/C: 45.1%
[53]
  viability, T/C: 33%
[54]
  viability, T/C: 22.2%
[55]
  viability, T/C: 45.4%
[56]
  viability, T/C: 38.2%
[57]
  viability, T/C: 36.4%
[58]
  viability, T/C: 37.2%
[59]
  viability, T/C: 23.3%
[60]
  viability, T/C: 19.9%

## CC(C)c1c(-c2ccccc2)nc2c(C#N)c[nH]n2c1=O + NC1CCC(NC2CC2c2ccccc2)CC1
Second compound 0.1 µM
  IC50: > 10000 nM
Second compound 0.316 µM
  IC50: > 10000 nM
Second compound 1 µM
  IC50: > 10000 nM
Second compound 3.16 µM
  IC50: > 10000 nM
Second compound 10 µM
  IC50: > 10000 nM
[31]
  viability, T/C: 108%
[32]
  viability, T/C: 108%
[33]
  viability, T/C: 101%
[34]
  viability, T/C: 102%
[35]
  viability, T/C: 105%
[36]
  viability, T/C: 103%
[37]
  viability, T/C: 109%
[38]
  viability, T/C: 106%
[39]
  viability, T/C: 106%
[40]
  viability, T/C: 111%
[41]
  viability, T/C: 110%
[42]
  viability, T/C: 104%
[43]
  viability, T/C: 101%
[44]
  viability, T/C: 100%
[45]
  viability, T/C: 102%
[46]
  viability, T/C: 109%
[47]
  viability, T/C: 106%
[48]
  viability, T/C: 103%
[49]
  viability, T/C: 86.6%
[50]
  viability, T/C: 90.4%
[51]
  viability, T/C: 87.6%
[52]
  viability, T/C: 88.5%
[53]
  viability, T/C: 94.2%
[54]
  viability, T/C: 87.3%
[55]
  viability, T/C: 64.5%
[56]
  viability, T/C: 69.2%
[57]
  viability, T/C: 70.2%
[58]
  viability, T/C: 73.7%
[59]
  viability, T/C: 71.1%
[60]
  viability, T/C: 66.5%
